The subject of test [1] is Pseudomonas aeruginosa KM338. The experiment in a line: Antibacterial activity (MIC, growth in BHI medium). Format: cell-based. Details: key to Antibacterial activity (growth): -: grow; ±: slightly grow; +: not grow. Here is the method: To a test tube was charged 3.8 ml of Brain Heart Infusion (BHI) medium, and 100 μl of a sample solution containing oleanolic, ursolic or glycyrrhetic acid and 100 μl of pre-incubated culture of bacterium selected from those listed below were added thereto. The mixture was incubated at 37° C. and then allowed to stand over night. The extent of the growth of bacterium was observed after two or five days. The MIC value was determined for each sample and summarized in Table 2. |Pseudomonas aeruginosa KM338

Test [2] concerns Staphylococcus aureus 209P. The experiment in a line: Antibacterial activity (MIC, growth in BHI medium). Format: cell-based. Details: key to Antibacterial activity (growth): -: grow; ±: slightly grow; +: not grow. Here is the method:
To a test tube was charged 3.8 ml of Brain Heart Infusion (BHI) medium, and 100 μl of a sample solution containing oleanolic, ursolic or glycyrrhetic acid and 100 μl of pre-incubated culture of bacterium selected from those listed below were added thereto. The mixture was incubated at 37° C. and then allowed to stand over night. The extent of the growth of bacterium was observed after two or five days. The MIC value was determined for each sample and summarized in Table 2. |Staphylococcus aureus […]

Bounds are passed on as bounds.

For the molecule `CC1(C)CC[C@]2(C(=O)O)CC[C@]3(C)C(=CC[C@@H]4[C@@]5(C)CC[C@H](O)C(C)(C)[C@@H]5CC[C@]43C)[C@@H]2C1` [Oleanolic acid], the “Antibacterial activity (growth)” value in test [1] (10 μg/ml), in test [1] (25 μg/ml), in test [1] (50 μg/ml), in test [1] (100 μg/ml), in test [1] (200 μg/ml) and in test [1] (400 μg/ml) was “-” in each case. Moreover, the “Antibacterial activity (growth)” value in test [2] (10 μg/ml), in test [2] (25 μg/ml), in test [2] (50 μg/ml), in test [2] (100 μg/ml), in test [2] (200 μg/ml) and in test [2] (400 μg/ml) was “-” in each case. Moreover, the MIC in test [1] (KM338, Pseudomonas aeruginosa, BHI, 37° C., read-out: MIC (minimum inhibitory concentration)) was more than 400 µg/mL; in test [2] (209P, Staphylococcus aureus, BHI, 37° C., read-out: MIC (minimum inhibitory concentration)) it was more than 400 µg/mL.

The record behind these values is patent US4606911A, “Pharmaceutical composition for the prevention of dental caries” (Rohto Pharmaceutical Co. Ltd., priority 1984, dated 1986).
